For two compounds, pest or weed control, plant injury and Corn plant response rating (crop injury, 0 = no effect, 100 = complete kill) results are on record in patent US12077503B2, “Substituted cyclic amides and their use as herbicides” (FMC CORPORATION, priority 2015, dated 2024).

Where two headings read alike, the source gives them in different places.

Common to all, as to format: in vivo
The test system of assay [1] is Galium (catchweed bedstraw, Galium aparine). As to the kind of experiment: Test A postemergence. To be noted: Galium, post-emergence, 240 h, Postemergence; for pest or weed control at 125 g/ha: 125 g ai/ha, visual rating about 10 d after treatment, read-out: Galium plant response rating (0 to 100 scale); for pest or weed control at 500 g/ha: 500 g ai/ha, visual injury, 0 to 100 scale (0 no effect, 100 complete control), approx. 10 d, read-out: Plant response rating, Galium. The procedure, abridged:
(§1)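 Treatment is preemergence as a directed soil spray after planting, or postemergence at the one- to two-leaf stage, with test chemical in a non-phytotoxic solvent mixture plus surfactant. Plants stay in the greenhouse about 10 d before visual injury scoring on a 0 to 100 scale versus untreated controls.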

A further assay has as its system Kochia (Kochia scoparia). As to the kind of experiment: Test A postemergence. The settings on record: Bassia scoparia, post-emergence, 240 h, Postemergence; for pest or weed control at 125 g/ha: 125 g ai/ha, visual rating about 10 d after treatment, read-out: Kochia plant response rating (0 to 100 scale); for pest or weed control at 500 g/ha: 500 g ai/ha, visual injury, 0 to 100 scale (0 no effect, 100 complete control), approx. 10 d, read-out: Plant response rating, Kochia. The procedure, abridged: as §1

Assay [2] deals with barnyardgrass (Echinochloa crus-galli). As to the kind of experiment: Test A postemergence. To be noted: Echinochloa crus-galli, post-emergence, 240 h, Postemergence; for pest or weed control at 125 g/ha: 125 g ai/ha, visual rating about 10 d after treatment, read-out: Barnyardgrass plant response rating (0 to 100 scale, 0 no effect, 100 complete control); for pest or weed control at 500 g/ha: 500 g ai/ha, visual injury, 0 to 100 scale (0 no effect, 100 complete control), approx. 10 d, read-out: Plant response rating, Barnyardgrass. Put shortly: as §1

Assay [3] relates to blackgrass (Alopecurus myosuroides). The experiment in a line: Test A postemergence. The settings on record: Alopecurus myosuroides, post-emergence, 240 h, Postemergence; for pest or weed control at 125 g/ha: 125 g ai/ha, visual rating about 10 d after treatment, read-out: Blackgrass plant response rating (0 to 100 scale); for pest or weed control at 500 g/ha: 500 g ai/ha, visual injury, 0 to 100 scale (0 no effect, 100 complete control), approx. 10 d, read-out: Plant response rating, Blackgrass. The procedure, abridged:
as §1

The next assay deals with corn (Zea mays). As to the kind of experiment: Test A postemergence. To be noted: Zea mays, post-emergence, 240 h, Postemergence; for plant injury at 125 g/ha: 125 g ai/ha, visual rating about 10 d after treatment, read-out: Corn plant response rating (0 to 100 scale); for Corn plant response rating (crop injury, 0 = no effect, 100 = complete kill) at 500 g/ha: 500 g ai/ha, visual injury, 0 to 100 scale (0 no effect, 100 complete control), approx. 10 d. The procedure, abridged: as §1

Assay [4] has as its system giant foxtail (Setaria faberii). The experiment in a line: Test A postemergence. The settings on record: Setaria faberi, post-emergence, 240 h, Postemergence; for pest or weed control at 125 g/ha: 125 g ai/ha, visual rating about 10 d after treatment, read-out: Foxtail, Giant plant response rating (0 to 100 scale); for pest or weed control at 500 g/ha: 500 g ai/ha, visual injury, 0 to 100 scale (0 no effect, 100 complete control), approx. 10 d, read-out: Plant response rating, Foxtail, Giant. The procedure, abridged: as §1

For assay [5], the system named is pigweed (Amaranthus retroflexus). The experiment in a line: Test A postemergence. To be noted: Amaranthus retroflexus, post-emergence, 240 h, Postemergence; for pest or weed control at 125 g/ha: 125 g ai/ha, visual rating about 10 d after treatment, read-out: Pigweed plant response rating (0 to 100 scale); for pest or weed control at 500 g/ha: 500 g ai/ha, visual injury, 0 to 100 scale (0 no effect, 100 complete control), approx. 10 d, read-out: Plant response rating, Pigweed. Put shortly: as §1

Assay [6] deals with ragweed (common ragweed, Ambrosia elatior). As to the kind of experiment: Test A postemergence. To be noted: Ambrosia artemisiifolia, post-emergence, 240 h, Postemergence; for pest or weed control at 125 g/ha: 125 g ai/ha, visual rating about 10 d after treatment, read-out: Ragweed plant response rating (0 to 100 scale); for pest or weed control at 500 g/ha: 500 g ai/ha, visual injury, 0 to 100 scale (0 no effect, 100 complete control), approx. 10 d, read-out: Plant response rating, Ragweed. Put shortly:
as §1

The test system of assay [7] is ryegrass, Italian (Italian ryegrass, Lolium multiflorum). The experiment in a line: Test A postemergence. To be noted: Lolium multiflorum, post-emergence, 240 h, Postemergence; for pest or weed control at 125 g/ha: 125 g ai/ha, visual rating about 10 d after treatment, read-out: Ryegrass, Italian plant response rating (0 to 100 scale); for pest or weed control at 500 g/ha: 500 g ai/ha, visual injury, 0 to 100 scale (0 no effect, 100 complete control), approx. 10 d, read-out: Plant response rating, Ryegrass, Italian. Put shortly:
as §1

Assay [8] concerns wheat (Triticum aestivum). The experiment in a line: Test A postemergence. The settings on record: Triticum aestivum, post-emergence, 240 h, Postemergence; for plant injury at 125 g/ha: 125 g ai/ha, visual rating about 10 d after treatment, read-out: Wheat plant response rating (0 to 100 scale); for plant injury at 500 g/ha: 500 g ai/ha, visual injury, 0 to 100 scale (0 no effect, 100 complete control), approx. 10 d, read-out: Plant response rating, Wheat. The procedure, abridged: as §1

For assay [9], the system named is barnyardgrass (Echinochloa crus-galli). The experiment in a line: Test B flooded paddy test. The settings on record: Echinochloa crus-galli, Flood, 250 g ai/ha. Put shortly: (§2)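 Compound goes directly into floodwater once pots are flooded 3 cm above soil, targeting plants at two leaves; the water depth is then held for the test duration. Plants sit 13–15 d in a greenhouse and are rated visually, 100 denoting complete control.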

Assay [10] concerns ducksalad (Heteranthera limosa). The experiment in a line: Test B flooded paddy test. The settings on record: Heteranthera limosa, Flood, 250 g ai/ha. Put shortly: as §2
The test system of a further assay is rice (Oryra sativa). The experiment in a line: Test B flooded paddy test. The settings on record: Oryza sativa, Flood, 250 g ai/ha. Put shortly: as §2
Assay [11] concerns sedge, umbrella (small-flower umbrella sedge, Cyperus difformis). As to the kind of experiment: Test B flooded paddy test. The settings on record: Cyperus difformis, Flood, 250 g ai/ha. Put shortly: as §2

Regarding `CO[C@]1(C(=O)Nc2cccc(F)c2F)C(=O)N(C)C[C@@H]1c1ccc(C(F)(F)F)cc1` (racemic) [Compound 1334], the pest or weed control at 125 g/ha in assay [1] came to 50%; with Kochia (Kochia scoparia), 0%; in assay [2], 0%; in assay [3], 0%; in assay [4], 0%; in assay [5], 30%. For the same compound, the pest or weed control at 125 g/ha in [6] and in assay [7] was 0% each time. Besides, the pest or weed control at 500 g/ha in assay [1] turned out to be 50%; with Kochia (Kochia scoparia), 0%; in [2], 50%; in [3] it was 0%; in assay [4], 50%; in assay [5], 40%. Moreover, the pest or weed control at 500 g/ha in assay [6] and in assay [7] was 20% in each case. Moreover, the plant injury at 125 g/ha (in the assay on corn (Zea mays); in [8]) was 0% in each case. In the assay on corn (Zea mays), the Corn plant response rating (crop injury, 0 = no effect, 100 = complete kill) at 500 g/ha amounted to 30%. The plant injury at 500 g/ha in [8] stood at 0%. Moreover, the pest or weed control at 250 g/ha in assay [9] (360 h, visually evaluated after 13 to 15 d, read-out: Plant response rating, Barnyardgrass (0 to 100 scale where 0 is no effect and 100 is complete control)) is 0%; in assay [10] (360 h, visually evaluated after 13 to 15 d, read-out: Plant response rating, Ducksalad (0 to 100 scale where 0 is no effect and 100 is complete control)), 90%; in the assay on rice (Oryra sativa) (360 h, visually evaluated after 13 to 15 d, read-out: Plant response rating, Rice (0 to 100 scale where 0 is no effect and 100 is complete control)), 0%; in [11] (360 h, visually evaluated after 13 to 15 d, read-out: Plant response rating, Sedge, Umbrella (0 to 100 scale where 0 is no effect and 100 is complete control)), 0%.

Consider `COc1cc([C@H]2CN(C)C(=O)[C@@H]2C(=O)Nc2cccc(F)c2C)ccc1F` [Compound 1300], for which the pest or weed control at 125 g/ha came to 20% in [1]; 0% in the assay with Kochia (Kochia scoparia); 80% in assay [2]; 30% in assay [3]; 80% in assay [4]; 0% in assay [5]. Further, the pest or weed control at 125 g/ha in assay [6] and in assay [7] was 0% throughout. Also, the pest or weed control at 500 g/ha was 40% in [1]; 0% in the assay with Kochia (Kochia scoparia); 90% in assay [2]; 50% in assay [3]; 90% in assay [4]; 0% in assay [5]. Further, the pest or weed control at 500 g/ha in assay [6] was 0%; in assay [7] it was 30%. Further, the values for the plant injury at 125 g/ha (in the assay with corn (Zea mays); in [8]) were 20% and 0%, respectively. In the assay with corn (Zea mays), the Corn plant response rating (crop injury, 0 = no effect, 100 = complete kill) at 500 g/ha is 60%. For the same compound, the plant injury at 500 g/ha in [8] amounted to 50%. For the same compound, the pest or weed control at 250 g/ha worked out at 65% in [9] (0 to 100 scale where 0 is no effect and 100 is complete control, read-out: Barnyardgrass plant response rating); 80% in [10] (0 to 100 scale where 0 is no effect and 100 is complete control, read-out: Ducksalad plant response rating); 25% with rice (Oryra sativa) (0 to 100 scale where 0 is no effect and 100 is complete control, read-out: Rice plant response rating); 0% in assay [11] (0 to 100 scale where 0 is no effect and 100 is complete control, read-out: Sedge, Umbrella plant response rating).
